Experimental data taken from US7462228B2, “Water-base black ink composition and colored product” (Nippon Kayaku Kabushiki Kaisha, priority 2003, dated 2008).
Converted amounts (≈) assume the structure as drawn.

How the values were obtained:
[1] = Maximum absorption wavelength in water (λmax); format: physicochemical
[2] = Solubility in water of the dye compound; format: physicochemical

COc1ccc(N=Nc2c(S(=O)(=O)O)cc3cc(N=Nc4c(S(=O)(=O)O)cc5cc(S(=O)(=O)O)c(N=Nc6ccc7cc(S(=O)(=O)O)c(N=Nc8ccc(OC)cc8S(=O)(=O)O)c(O)c7c6)c(N)c5c4O)ccc3c2O)c(S(=O)(=O)O)c1 [No. 2-1]
maximum absorption wavelength in water (λmax) [1]: 647 nm | solubility [2]: ~100 mg/mL (≈ 80.1 mM)

COc1ccc(N=Nc2c(S(=O)(=O)O)cc3cc(N=Nc4c(S(=O)(=O)O)cc5cc(S(=O)(=O)O)c(N=Nc6cc7c(O)c(N=Nc8ccc(OC)cc8S(=O)(=O)O)c(S(=O)(=O)O)cc7cc6S(=O)(=O)O)c(N)c5c4O)ccc3c2O)c(S(=O)(=O)O)c1 [No. 2-2]
maximum absorption wavelength in water (λmax) [1]: 657 nm | solubility [2]: ≥ 100 mg/mL

COc1ccc(N=Nc2c(S(=O)(=O)O)cc3cc(N=Nc4c(S(=O)(=O)O)cc5cc(S(=O)(=O)O)c(N=Nc6ccc7cc(S(=O)(=O)O)c(N=Nc8ccccc8S(=O)(=O)O)c(O)c7c6)c(N)c5c4O)ccc3c2O)c(S(=O)(=O)O)c1 [No. 2-3]
maximum absorption wavelength in water (λmax) [1]: 650 nm | solubility [2]: ≥ 100 mg/mL

COc1ccc(N=Nc2c(S(=O)(=O)O)cc3c(S(=O)(=O)O)c(N=Nc4c(S(=O)(=O)O)cc5cc(S(=O)(=O)O)c(N=Nc6ccc7c(O)c(N=Nc8ccc(OC)cc8S(=O)(=O)O)c(S(=O)(=O)O)cc7c6S(=O)(=O)O)c(O)c5c4N)ccc3c2O)c(S(=O)(=O)O)c1 [No. 2-4]
maximum absorption wavelength in water (λmax) [1]: 559 nm | solubility [2]: ≥ 100 mg/mL

COc1ccc(N=Nc2c(S(=O)(=O)O)cc3cc(N=Nc4c(S(=O)(=O)O)cc5cc(S(=O)(=O)O)c(N=Nc6ccc7cc(S(=O)(=O)O)c(N=Nc8ccc([N+](=O)[O-])cc8S(=O)(=O)O)c(O)c7c6)c(N)c5c4O)ccc3c2O)c(S(=O)(=O)O)c1 [No. 2-5]
maximum absorption wavelength in water (λmax) [1]: 652 nm | solubility [2]: ≥ 100 mg/mL

Nc1c(N=Nc2ccc3cc(S(=O)(=O)O)c(N=Nc4ccccc4S(=O)(=O)O)c(O)c3c2)c(S(=O)(=O)O)cc2cc(S(=O)(=O)O)c(N=Nc3ccc4cc(S(=O)(=O)O)c(N=Nc5ccccc5S(=O)(=O)O)c(O)c4c3)c(O)c12 [No. 2-11]
maximum absorption wavelength in water (λmax) [1]: 660 nm | solubility [2]: ≥ 100 mg/mL

COc1ccc(N=Nc2c(S(=O)(=O)O)cc3c(S(=O)(=O)O)c(N=Nc4c(S(=O)(=O)O)cc5cc(S(=O)(=O)O)c(N=Nc6ccc7c(O)c(N=Nc8ccccc8S(=O)(=O)O)c(S(=O)(=O)O)cc7c6)c(O)c5c4N)ccc3c2O)c(S(=O)(=O)O)c1 [No. 2-28]
maximum absorption wavelength in water (λmax) [1]: 645 nm | solubility [2]: ~100 mg/mL (≈ 77 mM)

COc1ccc(N=Nc2c(S(=O)(=O)O)cc3cc(N=Nc4c(S(=O)(=O)O)cc5cc(S(=O)(=O)O)c(N=Nc6ccc7cc(S(=O)(=O)O)c(N=Nc8cc(S(=O)(=O)O)ccc8S(=O)(=O)O)c(O)c7c6)c(N)c5c4O)ccc3c2O)c(S(=O)(=O)O)c1 [No. 2-29]
maximum absorption wavelength in water (λmax) [1]: 646 nm | solubility [2]: ≥ 100 mg/mL
